Experimental data: the Kinase Knowledgebase extract (Sharma et al. 2016)

Target: EGFR (UniProt P00533)
Sequence (P00533 whole entry, looked up): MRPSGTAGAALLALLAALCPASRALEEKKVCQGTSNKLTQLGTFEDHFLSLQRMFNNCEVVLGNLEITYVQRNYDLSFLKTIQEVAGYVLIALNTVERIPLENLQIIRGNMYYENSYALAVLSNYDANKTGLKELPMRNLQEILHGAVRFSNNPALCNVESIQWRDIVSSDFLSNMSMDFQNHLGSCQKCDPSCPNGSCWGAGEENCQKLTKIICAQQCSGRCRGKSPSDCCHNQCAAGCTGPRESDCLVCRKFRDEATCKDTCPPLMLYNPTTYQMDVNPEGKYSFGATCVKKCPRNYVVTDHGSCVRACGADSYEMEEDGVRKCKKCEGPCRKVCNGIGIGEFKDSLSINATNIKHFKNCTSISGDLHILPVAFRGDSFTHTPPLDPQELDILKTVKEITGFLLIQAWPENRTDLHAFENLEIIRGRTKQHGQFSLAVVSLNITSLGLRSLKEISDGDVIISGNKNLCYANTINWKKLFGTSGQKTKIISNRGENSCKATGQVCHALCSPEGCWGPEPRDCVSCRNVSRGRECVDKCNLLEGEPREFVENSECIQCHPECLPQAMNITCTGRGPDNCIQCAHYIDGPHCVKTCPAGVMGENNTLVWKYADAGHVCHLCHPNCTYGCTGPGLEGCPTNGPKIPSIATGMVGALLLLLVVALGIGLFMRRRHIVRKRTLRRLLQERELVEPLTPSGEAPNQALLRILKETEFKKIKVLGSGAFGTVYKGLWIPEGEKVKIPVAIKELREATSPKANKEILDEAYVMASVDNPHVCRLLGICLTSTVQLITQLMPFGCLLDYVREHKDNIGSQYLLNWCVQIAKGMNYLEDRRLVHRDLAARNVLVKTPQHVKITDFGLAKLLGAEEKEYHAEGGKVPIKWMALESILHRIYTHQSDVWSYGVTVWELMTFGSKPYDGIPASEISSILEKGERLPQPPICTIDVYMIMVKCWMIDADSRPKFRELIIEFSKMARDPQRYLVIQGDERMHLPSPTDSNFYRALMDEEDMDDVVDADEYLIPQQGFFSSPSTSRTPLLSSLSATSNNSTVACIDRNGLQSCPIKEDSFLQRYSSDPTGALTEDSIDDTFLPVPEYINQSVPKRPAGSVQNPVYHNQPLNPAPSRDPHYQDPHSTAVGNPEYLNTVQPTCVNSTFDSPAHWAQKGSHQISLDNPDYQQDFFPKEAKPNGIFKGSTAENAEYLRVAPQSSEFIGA

Nc1cccc(C#Cc2cncnc2Nc2ccc(OCc3cccc(F)c3)c(Cl)c2)n1
IC50: < 100 nM
